# According to US6541509B2 (priority 2000, dated 2003):
# Like-named read-outs stand apart in the source and are kept apart here.
# Columns and labels:
# [1] = literature [13], [16]; discodermolide value predicted; cited from earlier work
# P-glycoprotein = assay: Steady-state accumulation of [3H]Taxol; format: cell-based; conditions: Taxol-resistant murine cell line; data not shown
# A549-T12 cells [2] = format: cell-based, human
# Procedure: Cells were incubated with the different agents for 48 h, fixed, stained with propidium iodide, and analyzed by flow cytometry, as described below.
# For the drug substitution experiments, A549-T12 cells were seeded at a density of 3×10^4 cells/mL in 75-cm^2 flasks, and treated with various drugs at the indicated concentrations (FIG. 5). After 48 h, both adherent and nonadherent cells were harvested, fixed in 70% ethanol for at least 20 min, permeabilized with 0.1% Triton X-100 in PBS for 3 min, and stained for 30 min at 37° C. with 10 μg/mL of propidium iodide (Sigma) in a PBS solution containing 1 μg/mL of RNase A (Boehringer Mannheim, Indianapolis, Ind.). Cell-cycle analysis was performed using the Becton Dickinson FACScan and the CellQuest program. […] The cells then were prepared as described above.
# J774.2 = assay: cells; format: cell-based, mouse; conditions: Mus musculus; J774.2, 72 h, mean ± SE; read-out: IC50 (drug concentration that inhibits cell division by 50%)
# Procedure: (§1) The drug-sensitive mouse macrophage-like cell line, J774.2, and its Taxol-resistant cell line, J7-T3-1.6, were maintained as previously described. […] Drug-sensitive and vinblastine-resistant human ovarian carcinoma cell lines, SKOV3 and SKVLB, were obtained from Dr. V. Ling, and were maintained as previously described. Both J7-T3-1.6 and SKVLB cells overexpress P-glycoprotein. SKVLB cells were grown in the presence of 1 μM vinblastine. The Taxol-resistant human non-small-cell lung carcinoma cell line, A549-T12, was derived from the drug-sensitive A549 cell line; both cell lines were maintained as previously described.
# (§2) For the A549 cell lines, cells were seeded at a density of 1×10^4 cells/mL (A549) or 3×10^4 cells/mL (A549-T12), in triplicate, 6-well plates, and allowed to attach for 24 h. […] The SKOV3 and SKVLB cell lines were assayed in a similar manner. Cells were seeded in triplicate, at a density of 6×10^3 cells/mL (SKOV3) or 12×10^3 cells/mL (SKVLB), in 6-well plates, and incubated with a drug for 6 days. […] J774.2 and J7-T3-1.6 cells were plated at a density of 2×10^4 cells/well, in 96-well plates, and allowed to attach overnight. Serial dilutions of each drug were performed, and the cells were incubated for 72 h. The IC50 was determined using the CellTiter 96™ AQueous nonradioactive cell proliferation assay (Promega, Madison, Wis.), which correlates with the number of live cells. Different methods for determining IC50 values were used, depending on the most accurate method for each particular set of cell lines.
# J7-T3-1.6 = assay: cells; format: cell-based, mouse; conditions: for Fold resistance (ratio of IC50 J7-T3-1.6 to J774.2): after 72 h
# Procedure: as §1, §2
# microtubules = assay: In vitro microtubule polymerization assay; format: biochemical; conditions: in the absence of GTP
# SKVLB = assay: cells; format: cell-based, human; conditions: for Fold resistance (ratio of IC50, SKVLB and SKOV3): after 6 days
# Procedure: as §1, §2
# A549-T12 = assay: cells; format: cell-based, human; conditions: for Fold resistance (ratio of IC50 A549-T12 to A549): 72 h
# Procedure: as §1, §2
# SKOV3 = assay: cells; format: cell-based, human; conditions: SKOV3, 6 days, mean ± SE
# Procedure: as §1, §2
# A549 = assay: cells; format: cell-based, human; conditions: A549, 72 h, mean ± SE
# Procedure: as §1, §2
# A549-T12 cells [3] = format: cell-based, human; conditions: 48 h
# Procedure: A549-T12 cells were grown on cover slips and treated with the different compounds for 48 h. Cells were then permeabilized, fixed, and incubated with an α-tubulin antibody, as described below.
# A549-T12 cells, which were grown to subconfluency on glass cover slips in the absence of drug or in the presence of different drugs at varying concentrations (FIG. 4), were prepared for immunofluorescence microscopy as previously described, with the following modifications: (a) nonspecific binding was blocked using 10% normal goat serum in PBS for 30 min at 37° C.; (b) cells were incubated with a monoclonal antibody to α-tubulin (Sigma; 1:100 dilution; 5% normal goat serum in PBS), followed by a Cy3-conjugated anti-mouse IgG secondary antibody (Amersham, Arlington Heights, Ill.; 1:1000 dilution); and (c) slides were analyzed using the Zeiss Axioskop microscope (rhodamine filter) at 63× magnification.
# A549-T12 cells [4] = assay: Drug combination assay (colorimetric proliferation assay), Taxol titrated with test drug; format: cell-based, human; conditions: 72 h
# Procedure: For the drug combination assay, the cells were analyzed after 72 h using a cell proliferation assay, as described below. A: cytotoxicity curves of A549-T12 cells in the absence of Taxol or in the presence of Taxol (in various concentrations), in combination with a range of discodermolide concentrations; B-D: cytotoxicity curves of A549-T12 cells in the absence or presence of 2 nM Taxol, in combination with eleutherobin or the epothilones. —⬭—: no Taxol; ---⬬----: 2 nM Taxol.
# For the drug combination assay, A549-T12 cells were seeded in triplicate, at a density of 4×10^4 cells/mL, in 96-well plates, in the absence of Taxol or in the presence of various concentrations of Taxol, in combination with serial dilutions of each test drug. After a 72-h incubation, the plates were assayed using the colorimetric proliferation assay. In order to sustain the growth of A549-T12 cells in the absence of Taxol, cells were seeded at the higher densities described above.
smiles,measurement,setting,value
"C=C/C=C\[C@H](C)[C@H](OC(N)=O)[C@@H](C)[C@H](O)[C@@H](C)C/C(C)=C\[C@H](C)[C@@H](O)[C@@H](C)/C=C\[C@@H](O)C[C@@H]1OC(=O)[C@H](C)[C@@H](O)[C@H]1C [Disco, discodermolide]",Solubility relative to Taxol,[1],100 times more soluble than Taxol
same,Substrate for P-glycoprotein,P-glycoprotein,not substrates for P-glycoprotein
same,Cell-cycle profile,"A549-T12 cells [2]; 48 h, 2 nM Taxol, discodermolide 2 or 6 nM, other drugs as in FIG. 5",did not prevent the development of a G2-M-phase block
same,Reversal of the G2-M-phase block induced by Taxol removal,"A549-T12 cells [2]; 48 h without Taxol, then 48 h with drug, discodermolide 0.001-24.0 nM, data not shown",irreversible
same,Cell-cycle profile,A549-T12 cells [2]; discodermolide 0.001-1.0 nM,G2-M-phase block
same,Cell-cycle profile,A549-T12 cells [2]; discodermolide 12-24 nM,substantial increase in the hypodiploid population
same,IC50,J774.2,36 ± 5.5 nM
same,IC50,"J7-T3-1.6; Mus musculus, J7-T3-1.6, 72 h, mean ± SE, read-out: IC50 (drug concentration that inhibits cell division by 50%)",1050 nM
same,Fold resistance (ratio of IC50 J7-T3-1.6 to J774.2),J7-T3-1.6,29.2 fold
same,Fold resistance (ratio of IC50 J7-T3-1.6 to J774.2),J7-T3-1.6; listed as discodermolide,low resistance
same,Assembly of microtubules,microtubules,enhanced the assembly of stable microtubules
same,IC50,"SKVLB; Homo sapiens, Ovarian carcinoma cell, 144 h, SKVLB, 6 days, mean ± SE, read-out: IC50 (drug concentration that inhibits cell division by 50%)",575 ± 233 nM
same,"Fold resistance (ratio of IC50, SKVLB and SKOV3)",SKVLB,59.3 fold
same,"Fold resistance (ratio of IC50, SKVLB and SKOV3)",SKVLB; listed as discodermolide,low-level cross-resistance
same,Fold resistance (ratio of IC50 A549-T12 to A549),A549-T12,0.8 fold
same,Fold resistance (ratio of IC50 A549-T12 to A549),A549-T12; listed as discodermolide,no cross-resistance
same,IC50,"A549-T12; Homo sapiens, A549-T12, 72 h, cells maintained in 2 nM Taxol, mean ± SE, read-out: IC50 (drug concentration that inhibits cell division by 50%)",6.5 ± 2.4 nM
same,IC50,"SKOV3; Homo sapiens, SK-OV-3, 144 h, read-out: IC50 (drug concentration that inhibits cell division by 50%)",9.7 ± 0.3 nM
same,IC50 (drug concentration that inhibits cell division by 50%),SKOV3,decreased but similar responses
same,IC50 (drug concentration that inhibits cell division by 50%),A549,comparable activities
same,IC50,"A549; Homo sapiens, read-out: IC50 (drug concentration that inhibits cell division by 50%)",8.1 ± 0.14 nM
same,Concentration at which microtubules became arranged in bundle-like formations at the periphery of the cell,A549-T12 cells [3],≥ 12 nM
same,Microtubule cytoskeleton / ability to substitute for Taxol,A549-T12 cells [3]; concentrations as in FIG. 4,Neither discodermolide nor vinblastine was able to substitute for Taxol
same,Taxol concentration at which the potency of discodermolide was maximal,A549-T12 cells [4]; Taxol titrated with a range of discodermolide concentrations,2 nM
same,Loss of sensitivity of A549-T12 cells to the drug in the absence of 2 nM Taxol,A549-T12 cells [4]; absence vs presence of 2 nM Taxol,20 fold
